The values below are quoted from earlier work in patent US20220312825A1 (priority 2021, published 2022).

The conditions of the series: free base (non-protonated).

Regarding `CN1CCCC1c1cccnc1` (stereo not shown) [Free-base nicotine, 3-(1-methyl-2-pyrrolidinyl) pyridine], the pKa value result is recorded as “about 8”.
